Measurements taken from PMC11284787, “Ligand-Directed Labeling of the Adenosine A1 Receptor in Living Cells” (Journal of Medicinal Chemistry, 2024).

What was measured:
NL-hA2AAR = target: T1, NL-hA2AAR (Homo sapiens, UniProt P29274); assay: NanoBRET saturation ligand-binding assay, NL-hA2AAR; conditions: HEK293T cells transiently expressing NL-hA2AAR, mean ± SEM; read-out: affinity values pKD, NL-hA2AAR (converted)
T1 construct: expressed in transfected cells; host or cells: HEK293T, transient transfection (FuGENE)
T1 sequence (P29274 whole entry): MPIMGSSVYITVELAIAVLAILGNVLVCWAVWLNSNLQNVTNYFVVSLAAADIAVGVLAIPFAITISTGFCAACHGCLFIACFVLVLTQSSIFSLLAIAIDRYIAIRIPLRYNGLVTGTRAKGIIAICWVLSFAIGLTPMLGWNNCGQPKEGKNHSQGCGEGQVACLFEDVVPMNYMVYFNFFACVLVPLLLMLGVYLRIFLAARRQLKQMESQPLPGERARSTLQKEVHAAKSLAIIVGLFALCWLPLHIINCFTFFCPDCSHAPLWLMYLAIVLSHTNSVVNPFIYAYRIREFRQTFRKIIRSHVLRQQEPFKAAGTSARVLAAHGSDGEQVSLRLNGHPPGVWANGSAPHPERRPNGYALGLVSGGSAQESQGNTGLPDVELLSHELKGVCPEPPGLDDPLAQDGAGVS
Method: Probes 11 and 12 were further evaluated for their ability to bind the other three adenosine receptor subtypes (NL-A2AAR, NL-A2BAR, and NL-A3AR), and their ligand-binding properties were quantified in the NanoBRET saturation and inhibition binding assays, respectively (Table 1 and Figure 4). […]
plates (Nunc Lab-Tek, Thermo Fischer Scientific), pre-coated with Poly-D-Lysine, at 20,000 cells per well in DMEM/10% FCS. 24 h post seeding, cells were transiently transfected with human SNAP-A1. Transient transfections were carried out following manufacturer’s protocol: used FuGENE (Promega) HD at 3:1 ratio of reagent to cDNA with a total of 300 ng cDNA per well. Transfection solutions were made up in Gibco Opti-MEM (Thermo Fischer Scientific), incubated at RT for 5 min and added as 11 µL per well. Cells were incubated for additional 24 h at 37 OC, 5% CO2. Transient Transfection of NanoLuc-tagged human A 2AAR in HEK293T cell line was carried out as follows: 72 h prior to the experiment cells were removed from a confluent T75 flask and centrifuged. The pellet of cells was resuspended in 10 mL of fresh complete DMEM. […]
(§1) 37 °C for kinetic binding experiments. Emissions were read at 420 nm (80 nm bandpass; […]

NL-hA1AR [1] = target: T2, NL-hA1AR (Homo sapiens, UniProt P30542); assay: NanoBRET saturation ligand-binding assay, NL-hA1AR
T2 construct: expressed in transfected cells
T2 sequence (P30542 1-326): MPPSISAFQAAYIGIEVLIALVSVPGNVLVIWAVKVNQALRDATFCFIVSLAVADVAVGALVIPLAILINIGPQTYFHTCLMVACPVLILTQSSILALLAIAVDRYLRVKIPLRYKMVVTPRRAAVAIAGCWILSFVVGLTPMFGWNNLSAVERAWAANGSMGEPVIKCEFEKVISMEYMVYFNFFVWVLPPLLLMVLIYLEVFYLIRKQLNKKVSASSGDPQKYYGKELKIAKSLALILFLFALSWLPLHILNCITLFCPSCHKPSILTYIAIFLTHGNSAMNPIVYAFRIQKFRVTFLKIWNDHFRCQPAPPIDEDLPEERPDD
Method: The ligand-binding properties of the newly synthesized probes were assessed in a series of pharmacological assays. Initially, a NanoBRET[47],[48] saturation binding experiment was used to evaluate the binding affinity of ligand-directed probes functionally labeled with the SulfoCy5 fluorophore (11) to the NanoLuc(NL)-tagged[49] hA1AR expressed in HEK293T cells.
NanoBRET binding assay. All NanoBRET experiments were performed in white flat […]
as §1
the SulfoCy5-labelled probe. […]
nm emission by the 420 nm emission. The term “raw BRET ratio” refers to the unprocessed data as no background ratio has been subtracted. In all NanoBRET binding […]
competitive antagonist selective for the adenosine receptor under investigation […]
MRS1220 for the A3AR). HEK293T cells stably/transiently expressing Nluc-AR were […]
were incubated for 1 h at 37 °C. […]
NanoBRET saturation binding assay. Total and nonspecific saturation binding curves were fit simultaneously using the following equation: […]

NL-hA1AR [2] = target: T2, NL-hA1AR; assay: NanoBRET competition ligand-binding assay (CA200645 tracer), NL-hA1AR

Row | Structure (SMILES) | Kd (NL-hA2AAR) [nM] | Kd (NL-hA1AR [1]; HEK293T cells stably expressing NL-hA1AR, 1 h 37 °C, mean ± SEM, read-out: affinity values pKD, NL-hA1AR (converted)) [nM] | greater affinity for the NL-A1AR compared to the NL-A2AAR (saturation binding) (NL-hA1AR [1]; selectivity from pKD values) [fold] | Ki (NL-hA1AR [2]; CA200645 (25 nM) tracer, HEK293T cells, mean ± SEM, read-out: affinity values pKi, NL-hA1AR (converted)) [nM] | greater affinity for NL-A1AR over NL-A2AAR (competition binding) (NL-hA1AR [2]; selectivity from pKi values) [fold] | greater affinity for NL-A1AR over NL-A2BAR (competition binding) (NL-hA1AR [2]; selectivity from pKi values) [fold] | greater affinity for NL-A1AR over NL-A3AR (competition binding) (NL-hA1AR [2]; selectivity from pKi values) [fold]
1 | CCCCn1c(=O)c2[nH]c(C34CCC(C(=O)NCCNC(=O)CCNC(=O)c5ccc(OC(=O)CCCCC[N+]6=C(/C=C/C=C/C=C7/N(C)c8ccc(S(=O)(=O)O)cc8C7(C)C)C(C)(C)c7cc(S(=O)(=O)[O-])ccc76)c(F)c5)(CC3)CC4)nc2n(CCCC)c1=O [Compound 11, 1-(6-(4-((3-((2-(4-(1,3-Dibutyl-2,6-dioxo-2,3,6,7-tetrahydro-1H-purin-8-yl)bicyclo[2.2.2]octane-1-carboxamido)ethyl)amino)-3-oxopropyl)carbamoyl)-2-fluorophenoxy)-6-oxohexyl)-3,3-dimethyl-2-((1E,3E)-5-((E)-1,3,3-trimethyl-5-sulfoindolin-2-ylidene)penta-1,3-dien-1-yl)-3H-indol-1-ium-5-sulfonate] | 245 | 30.9 | 7 | – | – | – | –
2 | CCCCn1c(=O)c2[nH]c(C34CCC(C(=O)NCCNC(=O)CCNC(=O)c5ccc(OC(=O)CCC(=O)NCCOCCOCCNC(=O)O[C@H]6CC/C=C/CCC6)c(F)c5)(CC3)CC4)nc2n(CCCC)c1=O [Compound 12, 4-((3-((2-(4-(1,3-Dibutyl-2,6-dioxo-2,3,6,7-tetrahydro-1H-purin-8-yl)bicyclo[2.2.2]octane-1-carboxamido)ethyl)amino)-3-oxopropyl)carbamoyl)-2-fluorophenyl (R,E)-1-(Cyclooct-4-en-1-yloxy)-1,12-dioxo-5,8-dioxa-2,11-diazapentadecan-15-oate] | – | – | – | 13.5 | 104 | 61 | 857
